# Patent US7868135B2, “Compositions of lipopeptide antibiotic derivatives and methods of use thereof” (priority 2003, dated 2011)
# Starred links: 1 amine or outer side, 2 acyl side, 3 side chain; linkers in the order of their positions; H or OH if unused. Positions of bridges follow the written chain, without caps; N, C: chain ends. Non-standard residues stand in square brackets, D forms with d. Residues, ends and D or L forms follow the SMILES beside them. ξ: configuration not given here. *: point of attachment. X35 = CC(C(N[*:1])C(=O)[*:2])N(Cc1ccc(O)cc1)Cc1ccc(O)cc1; X10 = CC(C)=CCC/C(C)=C/C(=O)NC(C)C(N[*:1])C(=O)[*:2]; X37 = CC(NC(=O)[C@@H](N)CCCCN)C(N[*:1])C(=O)[*:2]; Benzoyl(4-OC10H21) = CCCCCCCCCCOc1ccc(C(=O)*)cc1; X11 = CC(NC(=O)CC1CC2CCC1C2)C(N[*:1])C(=O)[*:2]; ξAbu(βξ-NH2) = CC(N[*:3])C(N[*:1])C(=O)[*:2]; Phac(3-amino) = O=C(Cc1cccc(N[*:1])c1)[*:2]; X38 = CC(NC(=O)CCCN(C)C)C(N[*:1])C(=O)[*:2]; X16 = CCC(=O)C(=O)NC(C)C(N[*:1])C(=O)[*:2]; X24 = C/C=C/C(=O)NC(C)C(N[*:1])C(=O)[*:2]; Pentadecanoyl = CCCCCCCCCCCCCCC(=O)*; ξAsp(βξ-Me) = CC(C(=O)O)C(N)C(=O)O; Myristoyl = CCCCCCCCCCCCCC(=O)*; ξAbu(3ξ-NH2) = CC(N)C(N)C(=O)O; Undecanoyl = CCCCCCCCCCC(=O)*; X19 = CCCCCCCCCCS(=O)(=O)*; 3Abz = Nc1cccc(C(=O)O)c1; Pip = O=C(O)[CH]1CCCCN1; ξD = NC(CC(=O)O)C(=O)O; ξPip = O=C(O)C1CCCCN1; ξV = CC(C)C(N)C(=O)O; ξP = O=C(O)C1CCCN1
# System: Staphylococcus aureus (MSSA)
# Details: 24 h
# Protocol: (“Approved Standard M7-A3”).
# The antimicrobial lipopeptide derivatives described herein were tested for antimicrobial activity against Gram-positive bacteria as follows. The minimum inhibitory concentrations (MIC) of the antimicrobial lipopeptide derivatives of the invention were determined using NCCLS guidelines M7-A6 (2003) with a slight modification in that doubling serial dilutions were used to dilute the test compounds. The broth phase microdilution method was used. Isolated colonies of Staphylococcus aureus (MSSA) from an 18-24 hour blood agar plate cultures were used to inoculate cation adjusted Mueller-Hinton broth (CAMHB) supplemented with 0.625 mM calcium. […] A negative control containing media alone and a positive growth control containing bacteria with media alone were also included. MICs were determined after incubating the plates at about 37° C. for 24 hours. […] In Tables 1 to 16, R is the core cyclic peptide of amphomycin or aspartocin, which can be in the form of a β-isomer, an anhydro, a dianhydro, or any combination thereof. […] Furthermore, a person of skill in the art will appreciate that all the pounds, or groups of compounds, derived from the various combinations of and substituents shown in Tables 1 to 16, are disclosed by the present the same extent as if each compound or group of compounds was set forth individually.
row,Compound,MIC [µg/mL]
1,"CCCCCCCCCCCCCCC(=O)NC(CC(=O)O)C(=O)NC1C(=O)N2CCCCC2C(=O)NC(C(C)C(=O)O)C(=O)NC(CC(=O)O)C(=O)NCC(=O)NC(CC(=O)O)C(=O)NCC(=O)NC(C(C)NC(=O)CNC(=O)[C@@H](N)CCN)C(=O)NC(C(C)C)C(=O)N2CCCC2C(=O)NC1C (some centres unmarked) [Compound 154, C15-Amphomycin-9-Gly-gDab]",4
2,"C/C=C/C(=O)NC(C)C1NC(=O)CNC(=O)C(CC(=O)O)NC(=O)CNC(=O)C(CC(=O)O)NC(=O)C(C(C)C(=O)O)NC(=O)C2CCCCN2C(=O)C(NC(=O)C(CC(=O)O)NC(=O)CCCCCCCCCCCCCC)C(C)NC(=O)C2CCCN2C(=O)C(C(C)C)NC1=O (stereo not drawn) [Compound 218, C15-Amphomycin-9-Crotonyl] (Pentadecanoyl-D[ξAbu(βξ-NH2)][Pip][ξAsp(βξ-Me)]DGDG[X24]VP; lactam 2-C; configuration not given here)",8
3,"CCCCCCCCCCCCCCC(=O)NC(CC(=O)O)C(=O)NC1C(=O)N2CCCCC2C(=O)NC(C(C)C(=O)O)C(=O)NC(CC(=O)O)C(=O)NCC(=O)NC(CC(=O)O)C(=O)NCC(=O)NC(C(C)NC(=O)CC2CC3CCC2C3)C(=O)NC(C(C)C)C(=O)N2CCCC2C(=O)NC1C (stereo not drawn) [Compound 208, C15-Amphomycin-9-(2-Norbornaneacetyl)] (Pentadecanoyl-D[ξAbu(βξ-NH2)][Pip][ξAsp(βξ-Me)]DGDG[X11]VP; lactam 2-C; configuration not given here)",4
4,"CCCCCCCCCCCCCCC(=O)NC(CC(=O)O)C(=O)NC1C(=O)N2CCCCC2C(=O)NC(C(C)C(=O)O)C(=O)NC(CC(=O)O)C(=O)NCC(=O)NC(CC(=O)O)C(=O)NCC(=O)NC(C(C)N(Cc2ccc(O)cc2)Cc2ccc(O)cc2)C(=O)NC(C(C)C)C(=O)N2CCCC2C(=O)NC1C (stereo not drawn) [Compound 267, C15-Amphomycin-9-N,N-di-(p-Hydroxybenzyl)] (Pentadecanoyl-D[ξAbu(βξ-NH2)][Pip][ξAsp(βξ-Me)]DGDG[X35]VP; lactam 2-C; configuration not given here)",8
5,"CCCCCCCCCCCCCCC(=O)NC(CC(=O)O)C(=O)NC1C(=O)N2CCCCC2C(=O)NC(C(C)C(=O)O)C(=O)NC(CC(=O)O)C(=O)NCC(=O)NC(CC(=O)O)C(=O)NCC(=O)NC(C(C)NC(=O)CCCN(C)C)C(=O)NC(C(C)C)C(=O)N2CCCC2C(=O)NC1C (stereo not drawn) [Compound 242, C15-Amphomycin-9-(N,N′-Dimethyl-GABA)] (Pentadecanoyl-D[ξAbu(βξ-NH2)][Pip][ξAsp(βξ-Me)]DGDG[X38]VP; lactam 2-C; configuration not given here)",1 to 2
6,"CCCCCCCCCCC(=O)Nc1ccc(C(=O)NC(CC(=O)O)C(=O)NC2C(=O)N3CCCCC3C(=O)NC(C(C)C(=O)O)C(=O)NC(CC(=O)O)C(=O)NCC(=O)NC(CC(=O)O)C(=O)NCC(=O)NC(C(C)N)C(=O)NC(C(C)C)C(=O)N3CCCC3C(=O)NC2C)cc1 (centres unmarked) [Compound 284, C11-PABA-Amphomycin]",16
7,"CCCCCCCCCCCCCCC(=O)NC(CC(=O)O)C(=O)NC1C(=O)N2CCCCC2C(=O)NC(C(C)C(=O)O)C(=O)NC(CC(=O)O)C(=O)NCC(=O)NC(CC(=O)O)C(=O)NCC(=O)NC(C(C)NC(=O)[C@@H](N)Cc2ccc(F)cc2)C(=O)NC(C(C)C)C(=O)N2CCCC2C(=O)NC1C (some centres unmarked) [Compound 30, C15-Amphomycin-9-(P—F-Phe)]",32 to 64
8,"CCCCCCCCCCCCCCC(=O)NC(CC(=O)O)C(=O)NC1C(=O)N2CCCCC2C(=O)NC(C(C)C(=O)O)C(=O)NC(CC(=O)O)C(=O)NCC(=O)NC(CC(=O)O)C(=O)NCC(=O)NC(C(C)NC(=O)CCC(=O)O)C(=O)NC(C(C)C)C(=O)N2CCCC2C(=O)NC1C (centres unmarked) [Compound 352, C15-Amphomycin-9-Suc]",>64
9,"CCCCCCCCCCC(=O)Nc1cccc(C(=O)NC(CC(=O)O)C(=O)NC2C(=O)N3CCCCC3C(=O)NC(C(C)C(=O)O)C(=O)NC(CC(=O)O)C(=O)NCC(=O)NC(CC(=O)O)C(=O)NCC(=O)NC(C(C)N)C(=O)NC(C(C)C)C(=O)N3CCCC3C(=O)NC2C)c1 (stereo not drawn) [Compound 294, C11-(M-Aminobenzoyl)-Amphomycin] ({Undecanoyl-3Abz}-D[ξAbu(βξ-NH2)][Pip][ξAsp(βξ-Me)]DGDG[ξAbu(3ξ-NH2)]VP; lactam 2-C; configuration not given here)",0.5
10,"CCCCCCCCCCCCCCC(=O)NC(CC(=O)O)C(=O)NC1C(=O)N2CCCCC2C(=O)NC(C(C)C(=O)O)C(=O)NC(CC(=O)O)C(=O)NCC(=O)NC(CC(=O)O)C(=O)NCC(=O)NC(C(C)NC(=O)CNC(=O)[C@@H](N)CN)C(=O)NC(C(C)C)C(=O)N2CCCC2C(=O)NC1C (some centres unmarked) [Compound 157, C15-Amphomycin-9-Gly-Dap]",4 to 8
11,"CCCCCCCCCCOc1ccc(C(=O)NCC(=O)NC(CC(=O)O)C(=O)NC2C(=O)N3CCCCC3C(=O)NC(C(C)C(=O)O)C(=O)NC(CC(=O)O)C(=O)NCC(=O)NC(CC(=O)O)C(=O)NCC(=O)NC(C(C)N)C(=O)NC(C(C)C)C(=O)N3CCCC3C(=O)NC2C)cc1 (stereo not drawn) [Compound 110, CH3—(CH2)9—O-p-Ph-C(═O)-Gly-Amphomycin] ({Benzoyl(4-OC10H21)}-GD[ξAbu(βξ-NH2)][Pip][ξAsp(βξ-Me)]DGDG[ξAbu(3ξ-NH2)]VP; lactam 3-C; configuration not given here)",0.5
12,"CCCCCCCCCCS(=O)(=O)NCC(=O)NC(CC(=O)O)C(=O)NC1C(=O)N2CCCCC2C(=O)NC(C(C)C(=O)O)C(=O)NC(CC(=O)O)C(=O)NCC(=O)NC(CC(=O)O)C(=O)NCC(=O)NC(C(C)NC(=O)[C@@H](N)CCCCN)C(=O)NC(C(C)C)C(=O)N2CCCC2C(=O)NC1C (stereo partly drawn) [Compound 101, CH3—(CH2)9—SO2-Gly-Amphomycin-9-Lys] (X19-G[ξD][ξAbu(βξ-NH2)][ξPip][ξAsp(βξ-Me)][ξD]G[ξD]G[X37][ξV][ξP]; lactam 3-C)",32
13,"CCCCCCCCCCCCCCC(=O)NC(CC(=O)O)C(=O)NC1C(=O)N2CCCCC2C(=O)NC(C(C)C(=O)O)C(=O)NC(CC(=O)O)C(=O)NCC(=O)NC(CC(=O)O)C(=O)NCC(=O)NC(C(C)NC(=O)/C=C(\C)CCC=C(C)C)C(=O)NC(C(C)C)C(=O)N2CCCC2C(=O)NC1C (stereo not drawn) [Compound 224, C15-Amphomycin-9-Geranyl] (Pentadecanoyl-D[ξAbu(βξ-NH2)][Pip][ξAsp(βξ-Me)]DGDG[X10]VP; lactam 2-C; configuration not given here)",8
14,"CCCCCCCCCCCCCCCCS(=O)(=O)NC(CC(=O)O)C(=O)NC1C(=O)N2CCCCC2C(=O)NC(C(C)C(=O)O)C(=O)NC(CC(=O)O)C(=O)NCC(=O)NC(CC(=O)O)C(=O)NCC(=O)NC(C(C)NC(=O)CN)C(=O)NC(C(C)C)C(=O)N2CCCC2C(=O)NC1C (centres unmarked) [Compound 84, CH3—(CH2)15—SO2-Amphomycin-9-Gly]",2 to 4
15,"CCCCCCCCCCCCCCC(=O)NC(CC(=O)O)C(=O)NC1C(=O)N2CCCCC2C(=O)NC(C(C)C(=O)O)C(=O)NC(CC(=O)O)C(=O)NCC(=O)NC(CC(=O)O)C(=O)NCC(=O)NC(C(C)NC(=O)C(=O)CC)C(=O)NC(C(C)C)C(=O)N2CCCC2C(=O)NC1C (stereo not drawn) [Compound 223, C15-Amphomycin-9-(α-Ketobutyl)] (Pentadecanoyl-D[ξAbu(βξ-NH2)][Pip][ξAsp(βξ-Me)]DGDG[X16]VP; lactam 2-C; configuration not given here)",16
16,"CCCCCCCCCCCCCC(=O)Nc1cccc(CC(=O)NC(CC(=O)O)C(=O)NC2C(=O)N3CCCCC3C(=O)NC(C(C)C(=O)O)C(=O)NC(CC(=O)O)C(=O)NCC(=O)NC(CC(=O)O)C(=O)NCC(=O)NC(C(C)N)C(=O)NC(C(C)C)C(=O)N3CCCC3C(=O)NC2C)c1 (stereo not drawn) [Compound 303, C14-(M-Apa)-Amphomycin] (Myristoyl-[Phac(3-amino)]D[ξAbu(βξ-NH2)][Pip][ξAsp(βξ-Me)]DGDG[ξAbu(3ξ-NH2)]VP; lactam 3-C; configuration not given here)",0.5

# Same assay, conditions: S. aureus (MSSA), CAMHB supplemented with 0.625 mM calcium, 24 hours at about 37° C.; a range = compound tested multiple times
row,Compound,MIC
1,"CCCCCCCCCCCCCC(=O)NC(CC(=O)O)C(=O)NC1C(=O)N2CCCCC2C(=O)NC(C(C)C(=O)O)C(=O)NC(CC(=O)O)C(=O)NCC(=O)NC(CC(=O)O)C(=O)NCC(=O)NC(C(C)NC(=O)CCCN)C(=O)NC(C(C)C)C(=O)N2CCCC2C(=O)NC1C (centres unmarked) [Compound 62, C14-Amphomycin-9-GABA]",62/0.5-1 μg/mL
2,"CCCCCCCCCCCCCCCC(=O)NC(CC(=O)O)C(=O)NC1C(=O)N2CCCCC2C(=O)NC(C(C)C(=O)O)C(=O)NC(CC(=O)O)C(=O)NCC(=O)NC(CC(=O)O)C(=O)NCC(=O)NC(C(C)NC(=O)CCN)C(=O)NC(C(C)C)C(=O)N2CCCC2C(=O)NC1C (stereo not drawn) [Compound 79, C16-Amphomycin-9-(β-Ala)]",79/1 μg/mL
3,"CCCCCCCCCCCCC(=O)NC(CC(=O)O)C(=O)NC1C(=O)N2CCCCC2C(=O)NC(C(C)C(=O)O)C(=O)NC(CC(=O)O)C(=O)NCC(=O)NC(CC(=O)O)C(=O)NCC(=O)NC(C(C)NC(=O)CCCN)C(=O)NC(C(C)C)C(=O)N2CCCC2C(=O)NC1C (centres unmarked) [Compound 50, C13-Amphomycin-9-GABA]",50/1 μg/mL
4,"CCCCCCCCCCCC(=O)NC(CC(=O)O)C(=O)NC1C(=O)N2CCCCC2C(=O)NC(C(C)C(=O)O)C(=O)NC(CC(=O)O)C(=O)NCC(=O)NC(CC(=O)O)C(=O)NCC(=O)NC(C(C)NC(=O)CN)C(=O)NC(C(C)C)C(=O)N2CCCC2C(=O)NC1C (centres unmarked) [Compound 58, C12-Amphomycin-9-Gly]",58/4-8 μg/mL
5,CH3—(CH2)10—NH—C(═O)-(p-Phenylacetyl)-Amphomycin [Compound 290],1 µg/mL
6,CH3—(CH2)13—NH—C(═O)-(M-Phenylacetyl)-Amphomycin [Compound 292],1 µg/mL
7,CH3—(CH2)10—NH—C(═O)-(M-Phenylacetyl)-Amphomycin [Compound 362],0.5 µg/mL
